Assay results as given in ChEMBL document CHEMBL1201862, “PubChem BioAssay data set” (2004).
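Cultured in 96-well plates, cells were exposed to test compound for 48 hours across five concentrations. GI50: concentration for 50% inhibition of growth.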 Calls of active or inactive are those of the source. No stated cut-off is given here; in the data, active = GI50 up to about 1.1 µM and inactive = higher.

Assays:
Experiment in all cases: growth of human tumour cells (NCI), 48 h
NCI-H460 = system: NCI-H460
RXF 393 = system: RXF 393
SNB-75 = system: SNB-75
SF-268 = system: SF-268
SF-295 = system: SF-295
OVCAR-8 = system: OVCAR-8
SN12C = system: SN12C
HL-60 = system: HL-60
SF-539 = system: SF-539
A549 = system: A549
HCT-15 = system: HCT-15
DU-145 = system: DU-145
OVCAR-3 = system: OVCAR-3
UACC-62 = system: UACC-62
M14 = system: M14
HOP-92 = system: HOP-92
SK-MEL-5 = system: SK-MEL-5
SW-620 = system: SW-620
Hs-578T = system: Hs-578T
T47D = system: T47D

| SMILES | GI50 (NCI-H460) | GI50 (RXF 393) | GI50 (SNB-75) | GI50 (SF-268) | GI50 (SF-295) | GI50 (OVCAR-8) | GI50 (SN12C) | GI50 (HL-60) | GI50 (SF-539) | GI50 (A549) | GI50 (HCT-15) | GI50 (DU-145) | GI50 (OVCAR-3) | GI50 (UACC-62) | GI50 (M14) | GI50 (HOP-92) | GI50 (SK-MEL-5) | GI50 (SW-620) | GI50 (Hs-578T) | GI50 (T47D) |
| --- | --- | --- | --- | --- | --- | --- | --- | --- | --- | --- | --- | --- | --- | --- | --- | --- | --- | --- | --- | --- |
| O=C1/C(=C\c2ccccc2)CN(C(=O)CCN2CCCCC2)C/C1=C/c1ccccc1 | 2.35 µM (inactive) | 1.95 µM (inactive) | 0.834 µM (active) | 1.78 µM (inactive) | 1.67 µM (inactive) | 0.869 µM (active) | 0.966 µM (active) | 0.313 µM (active) | 3.25 µM (inactive) | 3.73 µM (inactive) | 1.09 µM | 5.21 µM (inactive) | 2.28 µM (inactive) | 1.43 µM (inactive) | 1.7 µM (inactive) | 3.55 µM (inactive) | 1.17 µM (inactive) | 0.167 µM (active) | 0.0153 µM (active) | – |
| CC1NC(=O)c2c(-c3ccccc3)nn(-c3ccccc3)c2NC1=O (configuration not stated) | > 100 µM (inactive) | > 100 µM (inactive) | > 100 µM (inactive) | > 100 µM (inactive) | > 100 µM (inactive) | > 100 µM (inactive) | > 100 µM (inactive) | – | – | > 100 µM (inactive) | > 100 µM | > 100 µM (inactive) | 37.4 µM (inactive) | > 100 µM (inactive) | > 100 µM (inactive) | > 100 µM (inactive) | > 100 µM (inactive) | > 100 µM (inactive) | > 100 µM (inactive) | > 100 µM (inactive) |
| CN(C)CCCn1c2c3ccccc3ccc2c2oc(=O)c3ccccc3c21 | 2.05 µM (inactive) | 1.33 µM (inactive) | 2.48 µM (inactive) | 5.41 µM (inactive) | 3.62 µM (inactive) | 3.57 µM (inactive) | 5.62 µM (inactive) | 2.28 µM (inactive) | 4.66 µM (inactive) | 4.53 µM (inactive) | 1.57 µM | – | 5.48 µM (inactive) | 8.63 µM (inactive) | 6.03 µM (inactive) | 23.8 µM (inactive) | 9.53 µM (inactive) | 2 µM (inactive) | > 36.6 µM (inactive) | 12.1 µM (inactive) |
| COC(=O)C1(N2CCOCC2)CCC([C@@H](c2ccccc2)C(C)[N+](=O)[O-])C1 (some centres not stated) | > 100 µM (inactive) | – | 34.5 µM (inactive) | > 100 µM (inactive) | > 100 µM (inactive) | > 100 µM (inactive) | > 100 µM (inactive) | 85.3 µM (inactive) | > 100 µM (inactive) | > 100 µM (inactive) | 66.8 µM | 19.7 µM (inactive) | 18.7 µM (inactive) | > 100 µM (inactive) | > 100 µM (inactive) | – | > 100 µM (inactive) | 45.2 µM (inactive) | > 100 µM (inactive) | 2.03 µM (inactive) |
| c1ccc(Sc2nc(Sc3ccccc3)nc(Sc3ccccc3)n2)cc1 | 47.6 µM (inactive) | 61.7 µM (inactive) | – | 32 µM (inactive) | 63.7 µM (inactive) | – | > 100 µM (inactive) | 6.38 µM (inactive) | 31.7 µM (inactive) | 28.5 µM (inactive) | 33.4 µM | 21.1 µM (inactive) | 13.3 µM (inactive) | > 100 µM (inactive) | > 100 µM (inactive) | – | > 100 µM (inactive) | – | 13.3 µM (inactive) | 22.3 µM (inactive) |
| N#CCC1COc2ccccc2O1 (configuration not stated) | – | – | > 10 µM (inactive) | > 10 µM (inactive) | > 10 µM (inactive) | > 10 µM (inactive) | > 10 µM (inactive) | > 10 µM (inactive) | > 10 µM (inactive) | > 10 µM (inactive) | > 10 µM | > 10 µM (inactive) | – | > 10 µM (inactive) | > 10 µM (inactive) | > 10 µM (inactive) | > 10 µM (inactive) | > 10 µM (inactive) | > 10 µM (inactive) | > 10 µM (inactive) |
| Nc1nc(Cl)cc(NCC2(CO)CC(=O)C2)n1 | > 100 µM (inactive) | > 100 µM (inactive) | – | > 100 µM (inactive) | > 100 µM (inactive) | 65.3 µM (inactive) | > 100 µM (inactive) | > 100 µM (inactive) | > 100 µM (inactive) | > 100 µM (inactive) | > 100 µM | > 100 µM (inactive) | > 100 µM (inactive) | 86.7 µM (inactive) | – | > 100 µM (inactive) | > 100 µM (inactive) | > 100 µM (inactive) | > 100 µM (inactive) | 21.2 µM (inactive) |
| O=C1CC(CC(O)C(O)CO)CC(=O)N1 (configuration not stated) | > 100 µM (inactive) | – | – | > 100 µM (inactive) | > 100 µM (inactive) | > 100 µM (inactive) | > 100 µM (inactive) | > 100 µM (inactive) | > 100 µM (inactive) | > 100 µM (inactive) | > 100 µM | > 100 µM (inactive) | > 100 µM (inactive) | – | > 100 µM (inactive) | > 100 µM (inactive) | > 100 µM (inactive) | > 100 µM (inactive) | > 100 µM (inactive) | > 100 µM (inactive) |
